PubChem BioAssay AID248 (DTP/NCI, 2004)
Where “and” joins values, the source holds several entries; their conditions need not be identical. Equal entries are not always repeated. Inconclusive results and toxic doses are left out.

Tested on: L1210 leukemia ip in BDF1 mice, survival T/C
Test: NCI In Vivo Anticancer Drug Screen. Data for tumor model L1210 Leukemia (intraperitoneal) in B6D2F1 (BDF1) mice
Settings: endpoint: mean survival time, higher = longer survival
Procedure, shortened: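 Transplantable tumor model; survival measured in treated vs vehicle control mice. Value = treated/control.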

[1] = dose: 100.0 mg/kg/injection, schedule: Q01DX009 (ip), vehicle: Klucel (hydroxypropylcellulose) (HPC)
[2] = dose: 200.0 mg/kg/injection, schedule: Q01DX009 (ip), vehicle: Klucel (hydroxypropylcellulose) (HPC)
[3] = dose: 400.0 mg/kg/injection, schedule: Q01DX009 (ip), vehicle: Klucel (hydroxypropylcellulose) (HPC)
[4] = dose: 100.0 mg/kg/injection, schedule: Q01DX009 (ip), vehicle: saline with Tween-80
[5] = dose: 100.0 mg/kg/injection, schedule: Q04DX003 (ip), vehicle: saline
[6] = dose: 100.0 mg/kg/injection, schedule: Q01DX001 (ip), vehicle: carboxymethylcellulose (CMC)
[7] = dose: 200.0 mg/kg/injection, schedule: Q01DX001 (ip), vehicle: carboxymethylcellulose (CMC)
[8] = dose: 400.0 mg/kg/injection, schedule: Q01DX001 (ip), vehicle: carboxymethylcellulose (CMC)
[9] = dose: 12.5 mg/kg/injection, schedule: Q01DX009 (ip), vehicle: saline with Tween-80
[10] = dose: 25.0 mg/kg/injection, schedule: Q01DX009 (ip), vehicle: saline with Tween-80
[11] = dose: 50.0 mg/kg/injection, schedule: Q01DX009 (ip), vehicle: saline with Tween-80
[12] = dose: 25.0 mg/kg/injection, schedule: Q04DX003 (ip), vehicle: saline
[13] = dose: 50.0 mg/kg/injection, schedule: Q04DX003 (ip), vehicle: saline
[14] = dose: 100.0 mg/kg/injection, schedule: Q01DX001 (ip), vehicle: saline
[15] = dose: 200.0 mg/kg/injection, schedule: Q01DX001 (ip), vehicle: saline
[16] = dose: 400.0 mg/kg/injection, schedule: Q01DX001 (ip), vehicle: saline

Compound: Cc1cc(C)c(-c2c(C)cc(C)cc2CBr)c(CBr)c1
- T/C [1]: 108 % of control
- T/C [2]: 99 % of control
- T/C [3]: 99 % of control

Compound: COC(CN(C)C(=O)NC1CCCCC1)OC
- T/C [4]: 102 % of control
- T/C (dose: 200.0 mg/kg/injection, schedule: Q01DX009 (ip), vehicle: saline with Tween-80): 100 % of control

Compound: CSc1nc(Cl)c2ncn(C3C=CC(O)C(CO)O3)c2n1 (stereo unspecified)
- T/C (dose: 100.0 mg/kg/injection, schedule: Q01DX005 (ip), vehicle: saline): 95 % of control
- T/C (dose: 200.0 mg/kg/injection, schedule: Q01DX005 (ip), vehicle: saline): 92 % of control

Compound: O=C(NNc1c(Cl)cc(Cl)cc1Cl)C(O)C(O)C(O)C(O)CO (stereo unspecified)
- T/C [5]: 91 % of control
- T/C (dose: 200.0 mg/kg/injection, schedule: Q04DX003 (ip), vehicle: saline): 87 % of control
- T/C (dose: 400.0 mg/kg/injection, schedule: Q04DX003 (ip), vehicle: saline): 87 % of control

Compound: C=CCc1c2c(ccc(OC)c1=O)-c1c(cc(OC)c(OC)c1OC)CCC2NC(C)=O (stereo unspecified)
- T/C [6]: 106 % of control
- T/C [7]: 109 % of control
- T/C [8]: 109 % of control

Compound: CCOC(=O)c1ccc(NC(=O)Nc2cccc(C(F)(F)F)c2)cc1
- T/C [1]: 92 % of control
- T/C [2]: 90 % of control

Compound: Cc1c(Cl)cccc1CC(Cl)C#N (stereo unspecified)
- T/C [9]: 97 % of control
- T/C [10]: 90 % of control
- T/C [11]: 87 % of control
- T/C [4]: 89 % of control

Compound: Cc1cc(NC(=O)Nc2cccc3ccccc23)no1
- T/C [1]: 104 % of control
- T/C (dose: 100.0 mg/kg/injection, schedule: Q04DX002 (ip), vehicle: Klucel (hydroxypropylcellulose) (HPC)): 89 % of control
- T/C [2]: 98 % of control
- T/C (dose: 200.0 mg/kg/injection, schedule: Q04DX002 (ip), vehicle: Klucel (hydroxypropylcellulose) (HPC)): 102 % of control
- T/C [3]: 98 % of control
- T/C (dose: 400.0 mg/kg/injection, schedule: Q04DX002 (ip), vehicle: Klucel (hydroxypropylcellulose) (HPC)): 89 % of control

Compound: C/C=C/c1ccc2ccccc2c1
- T/C [6]: 104 % of control
- T/C [7]: 96 % of control
- T/C [8]: 104 % of control

Compound: CC(=O)c1cccc(NC(=O)Oc2ccc(F)cc2Cl)c1
- T/C [1]: 97 % of control
- T/C [2]: 108 % of control

Compound: CN(C)c1ccc(/C=N\NC(=S)Nc2ccccc2)c(Cl)c1
- T/C [9]: 89 % of control
- T/C (dose: 12.5 mg/kg/injection, schedule: Q04DX003 (ip), vehicle: saline): 98 % of control
- T/C [10]: 91 % of control
- T/C [12]: 102 % of control
- T/C [11]: 97 % of control
- T/C [13]: 95 % of control
- T/C (dose: 75.0 mg/kg/injection, schedule: Q01DX009 (ip), vehicle: saline with Tween-80): 101 % of control
- T/C [14]: 87 % of control
- T/C (dose: 115.0 mg/kg/injection, schedule: Q01DX009 (ip), vehicle: saline with Tween-80): 98 % of control
- T/C (dose: 170.0 mg/kg/injection, schedule: Q01DX009 (ip), vehicle: saline with Tween-80): 92 % of control
- T/C [15]: 95 % of control
- T/C [16]: 92 % of control

Compound: OC(CSc1ccccc1)(c1ccccc1)c1ccccc1
- T/C (dose: 56.3 mg/kg/injection, schedule: Q03DX002 (ip), vehicle: saline with Tween-80): 121 % of control
- T/C (dose: 112.0 mg/kg/injection, schedule: Q03DX002 (ip), vehicle: saline with Tween-80): 102 % of control

Compound: CC(=O)Nc1nc(C)c(CCCNS(=O)(=O)c2ccc([N+](=O)[O-])cc2)c(=O)[nH]1
- T/C (dose: 100.0 mg/kg/injection, schedule: Q01DX009 (ip), vehicle: gum acacia): 90 % of control
- T/C (dose: 200.0 mg/kg/injection, schedule: Q01DX009 (ip), vehicle: gum acacia): 88 % of control
- T/C (dose: 400.0 mg/kg/injection, schedule: Q01DX009 (ip), vehicle: gum acacia): 87 % of control

Compound: CS(=O)(=O)CCN(N=O)C(=N)N[N+](=O)[O-]
- T/C (dose: 5.1 mg/kg/injection, schedule: Q01DX Z (ip), vehicle: carboxymethylcellulose (CMC)): 116 % of control
- T/C (dose: 7.7 mg/kg/injection, schedule: Q01DX Z (ip), vehicle: carboxymethylcellulose (CMC)): 116 % of control
- T/C (dose: 8.8 mg/kg/injection, schedule: Q01DX Z (ip), vehicle: methylcellulose (MC)): 121 % of control
- T/C (dose: 11.7 mg/kg/injection, schedule: Q01DX Z (ip), vehicle: carboxymethylcellulose (CMC)): 116 % of control
- T/C (dose: 12.0 mg/kg/injection, schedule: Q01DX Z (sc), vehicle: carboxymethylcellulose (CMC)): 101 % of control
- T/C (dose: 17.7 mg/kg/injection, schedule: Q01DX Z (ip), vehicle: carboxymethylcellulose (CMC)): 123 % of control
- T/C (dose: 20.0 mg/kg/injection, schedule: Q01DX Z (ip), vehicle: methylcellulose (MC)): 117 % of control
- T/C (dose: 24.0 mg/kg/injection, schedule: Q01DX Z (sc), vehicle: carboxymethylcellulose (CMC)): 117 % of control
- T/C (dose: 40.0 mg/kg/injection, schedule: Q01DX Z (ip), vehicle: carboxymethylcellulose (CMC)): 155 % of control
- T/C (dose: 45.0 mg/kg/injection, schedule: Q01DX Z (oral), vehicle: carboxymethylcellulose (CMC)): 106 % of control
- T/C (dose: 48.0 mg/kg/injection, schedule: Q01DX Z (sc), vehicle: carboxymethylcellulose (CMC)): 101 % of control
- T/C (dose: 60.0 mg/kg/injection, schedule: Q01DX Z (ip), vehicle: carboxymethylcellulose (CMC)): 150 % of control
- T/C (dose: 60.0 mg/kg/injection, schedule: Q01DX Z (ip), vehicle: methylcellulose (MC)): 168 % of control
- T/C (dose: 90.0 mg/kg/injection, schedule: Q01DX Z (ip), vehicle: methylcellulose (MC)): 122 % of control
- T/C (dose: 90.0 mg/kg/injection, schedule: Q01DX Z (oral), vehicle: carboxymethylcellulose (CMC)): 105 % of control
- T/C (dose: 96.0 mg/kg/injection, schedule: Q01DX Z (sc), vehicle: carboxymethylcellulose (CMC)): 112 % of control
- T/C (dose: 135.0 mg/kg/injection, schedule: Q01DX Z (ip), vehicle: methylcellulose (MC)): 119 % of control
- T/C (dose: 180.0 mg/kg/injection, schedule: Q01DX Z (oral), vehicle: carboxymethylcellulose (CMC)): 118 % of control
- T/C (dose: 360.0 mg/kg/injection, schedule: Q01DX Z (oral), vehicle: carboxymethylcellulose (CMC)): 114 % of control

Compound: O=C(c1ccccc1)C1CSS(=O)(=O)C1c1ccccc1 (stereo unspecified)
- T/C (dose: 100.0 mg/kg/injection, schedule: Q01DX001 (ip), vehicle: Klucel (hydroxypropylcellulose) (HPC)): 97 % of control
- T/C (dose: 200.0 mg/kg/injection, schedule: Q01DX001 (ip), vehicle: Klucel (hydroxypropylcellulose) (HPC)): 99 % of control
- T/C (dose: 400.0 mg/kg/injection, schedule: Q01DX001 (ip), vehicle: Klucel (hydroxypropylcellulose) (HPC)): 92 % of control

Compound: C/C=C(C)/C=N/Nc1nnc(N/N=C/C(C)=C/C)c2ccccc12
- T/C (dose: 50.0 mg/kg/injection, schedule: Q01DX001 (ip), vehicle: carboxymethylcellulose (CMC)): 95 % of control
- T/C [6]: 95 % of control
- T/C [7]: 103 % of control

Compound: C1=CN2CCCN3C=CC=c4ccc(c2c43)=C1
- T/C (dose: 7.5 mg/kg/injection, schedule: Q01DX009 (ip), vehicle: saline): 100 % of control
- T/C (dose: 15.0 mg/kg/injection, schedule: Q01DX009 (ip), vehicle: saline): 98 % of control

Compound: CSc1nc(C)cc(SC(=N)N)n1
- T/C (dose: 25.0 mg/kg/injection, schedule: Q01DX009 (ip), vehicle: saline): 105 % of control
- T/C [12]: 98 % of control
- T/C (dose: 50.0 mg/kg/injection, schedule: Q01DX009 (ip), vehicle: saline): 102 % of control
- T/C [13]: 97 % of control
- T/C [5]: 100 % of control and 101 % of control

Compound: O=C(O)c1cc(CBr)ccc1CBr
- T/C (dose: 6.25 mg/kg/injection, schedule: Q01DX009 (ip), vehicle: saline with Tween-80): 100 % of control
- T/C (dose: 6.25 mg/kg/injection, schedule: Q04DX003 (ip), vehicle: saline with Tween-80): 93 % of control
- T/C [9]: 103 % of control
- T/C (dose: 12.5 mg/kg/injection, schedule: Q04DX003 (ip), vehicle: saline with Tween-80): 94 % of control
- T/C [10]: 95 % of control
- T/C (dose: 25.0 mg/kg/injection, schedule: Q04DX003 (ip), vehicle: saline with Tween-80): 102 % of control

Compound: COc1ccc(C2(OC)Oc3ccccc3C(=O)C2(O)OC)cc1OC (stereo unspecified)
- T/C (dose: 50.0 mg/kg/injection, schedule: Q01DX001 (ip), vehicle: saline): 105 % of control
- T/C [14]: 103 % of control
- T/C [15]: 100 % of control
- T/C [16]: 97 % of control

Compound: OCC1=CCC2c3[nH]c4ccccc4c3CCN2C1 (stereo unspecified)
- T/C (dose: 100.0 mg/kg/injection, schedule: Q04DX003 (ip), vehicle: saline with Tween-80): 106 % of control
- T/C (dose: 200.0 mg/kg/injection, schedule: Q04DX003 (ip), vehicle: saline with Tween-80): 90 % of control
